These results are taken from paper PMC3304006 (Journal of the American Chemical Society, 2012).

The test concerns the target free peptide Cys-Lys-D-Ala-D-Ala. As to the kind of experiment: SPR binding to immobilized free peptide. The following applies: read-out: KD values from the current work, Free peptide, equilibrium fit, 25 °C. (In general: SPR reads the build-up and loss of mass on a sensor chip optically.)

As a reminder, the Kd is a measure of binding affinity in units of concentration. For Ristocetin, the Kd came to 2.42 ± 0.68 µM.

Regarding `CN[C@H]1C(=O)N[C@@H]2Cc3ccc(cc3)Oc3cc4cc(c3O[C@@H]3O[C@H](C(=O)O)[C@@H](O)[C@H](O)[C@H]3NC(=O)CCCCCCCCC(C)C)Oc3ccc(cc3Cl)[C@@H](O)[C@@H]3NC(=O)[C@H](NC(=O)[C@@H]4NC(=O)[C@@H](NC2=O)c2cc(cc(O)c2Cl)Oc2cc1ccc2O)c1ccc(O)c(c1)-c1c(O[C@H]2O[C@H](CO)[C@@H](O)[C@H](O)[C@@H]2O)cc(O)cc1[C@@H](C(=O)NCCCN(C)C)NC3=O` [Dalbavancin], the Kd is 0.855 ± 0.1 µM.

On to `CN[C@H](CC(C)C)C(=O)N[C@H]1C(=O)N[C@@H](CC(N)=O)C(=O)N[C@H]2C(=O)N[C@H]3C(=O)N[C@H](C(=O)N[C@H](C(=O)O)c4cc(O)cc(O)c4-c4cc3ccc4O)[C@H](O)c3ccc(c(Cl)c3)Oc3cc2cc(c3O[C@@H]2O[C@H](CO)[C@@H](O)[C@H](O)[C@H]2O[C@H]2C[C@](C)(N)[C@H](O)[C@H](C)O2)Oc2ccc(cc2Cl)[C@H]1O` [Vancomycin], for which the dissociation constant (Kd) was 4.16 ± 0.52 µM.
